From patent US20240316132A1 (priority 2023, published 2024)
Converted amounts (≈) assume the structure as drawn.

Key:
[1] = Solubility in mineral oil; format: physicochemical; conditions: oil or lipid, under certain conditions
Solubility in water = format: physicochemical
[2] = Thermal stability (decarboxylation of CBDA to CBD); format: physicochemical; conditions: saturated solution of CBDA in Met10u
[3] = Solubility in DMDA / Met10u high-KB amide surfactant; format: physicochemical
[4] = cited from earlier work

| Structure (SMILES) | solubility [1] [mg/mL] | solubility of CBDA in water (Solubility in water; temperature of 4 degrees Celsius or lower, pH 4 or lower) | solubility of CBDA in water (Solubility in water; temperature of 70 degrees Celsius or higher, pH of 10 or higher) | temperature at which CBDA begins to lose its carboxylic moiety (decarboxylation) and become CBD [2] | solubility ([3]; DMDA (high-KB amide surfactant), organic solvent or mixture, at 70 C) [mg/mL] | solubility of CBDA in Met10u ([3]; at 0 C) [%] | solubility of CBDA in Met10u ([3]; at 60 C) [%] | pKa [4] |
| --- | --- | --- | --- | --- | --- | --- | --- | --- |
| C=C(C)[C@@H]1CCC(C)=C[C@H]1c1c(O)cc(CCCCC)c(C(=O)O)c1O [CBDA, Δ(9)-tetrahydrocannabidiolic acid] | ~6 (≈ 16.7 mM) | below 20 micrograms per milliliter | over 20 milligrams per milliliter | at least 130 C | > 1000 | 1 | 100 | – |
| CCCCC/C=C\C/C=C\CCCCCCCC(=O)O [Linoleic acid, linoleic acid] | – | – | – | – | – | – | – | 9.24 |
